What was measured:
[1] = Comparative salt stability of pharmaceutical formulations after 1 week; type: physicochemical; conditions: formulation as in Example 3
Protocol: Samples were made with 1% Citric Acid or Na2CO3 by first coating a mortar with mannitol. Omarigliptin was then triturated using the mortar and pestle with 0.1000 g mannitol then with 0.1000 g mannitol & 0.1000 g citric acid or Na2CO3 and then with equal amounts mannitol. The triturate was added to the remaining ingredients and blended initially with mortar and pestle and then transferred into a glass bottle and blended with a blender at medium speed for 15 mins. Magnesium stearate was passed through a 250 micron screen and the required quantity was dispensed and added to the powders in the bottle. The mixture was blended for 1 minute at medium speed. Tablets were compressed using a press having ¼″ normal concave punches at 100 mg unit weight:
Fumarate, phosphate and hydrochloride salts of omarigliptin were made and used in the manufacture of pharmaceutical formulations as described in Example 3. The pharmaceutical formulations containing the fumerate, phosphate and hydrochloride salts of omarigliptin as well as pharmaceutical formulations containing the free base were tested under various conditions for stability.

[2] = Formulation work on chemical stability of omarigliptin; type: physicochemical
From the text: One concern with developing an oral pharmaceutical formulation of omarigliptin is the chemical stability of the compound. […] Also omarigliptin stability is critically sensitive to drug loading with lower drug loadings becoming increasingly unstable in any formulation drug product. […] This degradation process with respect to free amines is described in Robertson et al., Maillard's Reaction and its Impliations for Amine Drugs in the Pharmaceutical Industry, Digital Edition of American Pharmaceutical Review, Volume 15, Issue 3, April 2012.

Molecule | % Area ([1]; 5° C./50% RH closed) | % LC ([1]; 5° C./50% RH closed) | % Area ([1]; 50° C./75% RH/open) | % LC ([1]; 50° C./75% RH/open) | Total Degs. (Area %) ([1]; 50° C./75% RH/open) | % Area ([1]; 50° C./closed) | % LC ([1]; 50° C./closed) | Total Degs. (Area %) ([1]; 50° C./closed) | sensitivity to oxidation [2] | sensitivity to Maillard degradation (browning) ([2]; with excipients or other impurities that contain reducible sugar impurities) | sensitivity to acid and base catalyzed hydrolysis ([2]; early formulation work)
CS(=O)(=O)n1cc2c(n1)CN([C@H]1CO[C@H](c3cc(F)ccc3F)[C@@H](N)C1)C2.O=C(O)/C=C/C(=O)O [Fumerate] | 95.9% | 79.6% | 93.8% | 69.5% | 2.0 Area % | 94.3% | 75.9% | 1.6 Area % | – | – | –
CS(=O)(=O)n1cc2c(n1)CN([C@H]1CO[C@H](c3cc(F)ccc3F)[C@@H](N)C1)C2 [omarigliptin, (2R,3S,5R)-2-(2,5-Difluorophenyl)-5-[2-(methylsulfonyl)-2,6-dihydropyrrolo[3,4-c]pyrazol-5(4H)-yl]tetrahydro-2H-pyran-3-amine] | – | – | – | – | – | – | – | – | sensitive to oxidation | sensitive to Maillard degradation | sensitive to acid and base catalyzed hydrolysis

Continued, in another order:

% Area ([1]; 5° C./50% RH closed) | % LC ([1]; 5° C./50% RH closed) | % Area ([1]; 50° C./75% RH/open) | % LC ([1]; 50° C./75% RH/open) | Total Degs. (Area %) ([1]; 50° C./75% RH/open) | % Area ([1]; 50° C./closed) | % LC ([1]; 50° C./closed) | Total Degs. (Area %) ([1]; 50° C./closed) | sensitivity to oxidation [2] | sensitivity to Maillard degradation (browning) ([2]; with excipients or other impurities that contain reducible sugar impurities) | Molecule | sensitivity to acid and base catalyzed hydrolysis ([2]; early formulation work)
96.8% | 76.5% | 92.0% | 54.4% | 4.8 Area % | 94.0% | 70.8% | 2.9 Area % | – | – | Phosphate | –
98.69% | 75.5% | 95.3% | 62.5% | 3.6 Area % | 97.6% | 71.8% | 1.3 Area % | – | – | CS(=O)(=O)n1cc2c(n1)CN(C1COC(c3cc(F)ccc3F)C(N)C1)C2.Cl (centres unmarked) [HCl] | –
98.8% | 88.5% | 97.1% | 82.0% | 1.7 Area % | 97.9% | 85.9% | 0.9 Area % | – | – | CS(=O)(=O)n1cc2c(n1)CN([C@H]1CO[C@H](c3cc(F)ccc3F)[C@@H](N)C1)C2 [Free Base I, (2R,3S,5R)-2-(2,5-Difluorophenyl)-5-[2-(methylsulfonyl)-2,6-dihydropyrrolo[3,4-c]pyrazol-5(4H)-yl]tetrahydro-2H-pyran-3-amine] | –
